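Five concentrations, 48 hours, 96-well plates. At the GI50, growth is halved.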 Activity calls are given as the source filed them. Rule as the data show it: active = GI50 up to about 1.1 µM and inactive = higher.
How the values were obtained:
Assay in all cases: inhibition of tumour cell growth, NCI panel, 48 h
KM-20L2 = tested on: KM-20L2
SR = tested on: SR
ACHN = tested on: ACHN
NCI-H23 = tested on: NCI-H23
M19-MEL = tested on: M19-MEL
UO-31 = tested on: UO-31
HT-29 = tested on: HT-29
A549 = tested on: A549
HL-60 = tested on: HL-60
HOP-92 = tested on: HOP-92
KM12 = tested on: KM12
LXFL 529 = tested on: LXFL 529
DLD-1 = tested on: DLD-1
U-251 = tested on: U-251
A498 = tested on: A498
OVCAR-8 = tested on: OVCAR-8
SK-OV-3 = tested on: SK-OV-3
OVCAR-4 = tested on: OVCAR-4
LOX IMVI = tested on: LOX IMVI
Malme-3M = tested on: Malme-3M
HCC 2998 = tested on: HCC 2998
HCT-116 = tested on: HCT-116
M14 = tested on: M14
SF-539 = tested on: SF-539
NCI-H226 = tested on: NCI-H226
SNB-19 = tested on: SNB-19
CCRF-CEM = tested on: CCRF-CEM
IGROV-1 = tested on: IGROV-1
SW-620 = tested on: SW-620
OVCAR-3 = tested on: OVCAR-3
COLO 205 = tested on: COLO 205
SNB-78 = tested on: SNB-78
HOP-62 = tested on: HOP-62
786-0 = tested on: 786-0
RXF 393 = tested on: RXF 393
SK-MEL-5 = tested on: SK-MEL-5
SK-MEL-2 = tested on: SK-MEL-2
EKVX = tested on: EKVX
HCT-15 = tested on: HCT-15
NCI-H522 = tested on: NCI-H522
SNB-75 = tested on: SNB-75
DMS-114 = tested on: DMS-114
K562 = tested on: K562
SF-295 = tested on: SF-295
SF-268 = tested on: SF-268
MOLT-4 = tested on: MOLT-4
SN12C = tested on: SN12C
NCI-H460 = tested on: NCI-H460
XF498 = tested on: XF498
CAKI-1 = tested on: CAKI-1
OVCAR-5 = tested on: OVCAR-5
RPMI-8226 = tested on: RPMI-8226
SK-MEL-28 = tested on: SK-MEL-28
DMS-273 = tested on: DMS-273
UACC-62 = tested on: UACC-62
T47D = tested on: T47D
MCF7 = tested on: MCF7
MDA-N = tested on: MDA-N
PC-3 = tested on: PC-3
MDA-MB-435 = tested on: MDA-MB-435
TK-10 = tested on: TK-10
DU-145 = tested on: DU-145
NCI/ADR-RES = tested on: NCI/ADR-RES
BT-549 = tested on: BT-549
UACC-257 = tested on: UACC-257
MDA-MB-231 = tested on: MDA-MB-231
HOP-18 = tested on: HOP-18

Measured: GI50

CC1C=CC(C(N)C(=O)O)O1 (centres undefined)
inactive: KM-20L2 > 100 µM | SR > 100 µM | ACHN > 100 µM | NCI-H23 > 100 µM | M19-MEL > 100 µM | UO-31 > 100 µM | HT-29 > 100 µM | A549 > 100 µM | HL-60 > 100 µM | HOP-92 > 100 µM | KM12 > 100 µM | LXFL 529 > 100 µM | DLD-1 > 100 µM | U-251 > 100 µM | A498 > 100 µM | OVCAR-8 > 100 µM | SK-OV-3 > 100 µM | OVCAR-4 > 100 µM | LOX IMVI > 100 µM | Malme-3M > 100 µM | HCC 2998 > 100 µM | HCT-116 > 100 µM | M14 > 100 µM | SF-539 > 100 µM | NCI-H226 > 100 µM | SNB-19 > 100 µM | CCRF-CEM > 100 µM | IGROV-1 > 100 µM | SW-620 > 100 µM | OVCAR-3 > 100 µM | COLO 205 > 100 µM | SNB-78 > 100 µM | HOP-62 > 100 µM | 786-0 > 100 µM | RXF 393 > 100 µM | SK-MEL-5 > 100 µM | SK-MEL-2 > 100 µM | EKVX > 100 µM | NCI-H522 > 100 µM | SNB-75 > 100 µM | DMS-114 > 100 µM | K562 51.3 µM | SF-295 > 100 µM | SF-268 > 100 µM | MOLT-4 > 100 µM | SN12C > 100 µM | NCI-H460 > 100 µM | XF498 > 100 µM | CAKI-1 > 100 µM | OVCAR-5 > 100 µM | RPMI-8226 > 100 µM | SK-MEL-28 > 100 µM | DMS-273 > 100 µM | UACC-62 > 100 µM
> 100 µM: HCT-15

CC1=NN(C(=O)c2ccccc2O)C(=O)/C1=C/c1ccco1
inactive: KM-20L2 15 µM | SR 2.94 µM | ACHN 2.26 µM | NCI-H23 1.53 µM | M19-MEL 1.88 µM | HT-29 12.4 µM | A549 7.19 µM | HL-60 1.49 µM | HOP-92 7.03 µM | KM12 7.01 µM | LXFL 529 1.54 µM | U-251 6.89 µM | A498 2.43 µM | OVCAR-8 2.59 µM | T47D > 100 µM | MCF7 4.27 µM | SK-OV-3 5.7 µM | OVCAR-4 3.46 µM | PC-3 3.04 µM | LOX IMVI 2.67 µM | Malme-3M 11.9 µM | HCC 2998 > 22.8 µM | HCT-116 2.23 µM | M14 1.93 µM | TK-10 33.9 µM | NCI-H226 3.46 µM | SNB-19 7.55 µM | CCRF-CEM 1.61 µM | IGROV-1 1.26 µM | SW-620 3.3 µM | COLO 205 10.5 µM | SNB-78 22.6 µM | 786-0 1.64 µM | DU-145 4.74 µM | SK-MEL-5 1.36 µM | SK-MEL-2 5.02 µM | EKVX 3.06 µM | NCI/ADR-RES 4.44 µM | BT-549 12.6 µM | NCI-H522 1.74 µM | UACC-257 8.73 µM | SNB-75 3.02 µM | K562 2.64 µM | SF-295 3.58 µM | MDA-MB-231 15.1 µM | MOLT-4 1.93 µM | SN12C 2.96 µM | NCI-H460 1.59 µM | XF498 25.8 µM | CAKI-1 1.61 µM | OVCAR-5 9.18 µM | RPMI-8226 5.57 µM | SK-MEL-28 14.6 µM
active: UO-31 0.404 µM | DLD-1 0.502 µM | MDA-N 0.53 µM | MDA-MB-435 0.581 µM | SF-539 0.818 µM | OVCAR-3 0.65 µM | HOP-62 0.497 µM | RXF 393 0.171 µM | DMS-114 0.604 µM | SF-268 1.11 µM | UACC-62 0.436 µM
2.22 µM: HCT-15

COc1cc(Cn2c3ccccc3c3cc(C)c4c(c32)C=CC(C)(CCC=C(C)C)O4)cc2c1[nH]c1ccccc12 (centres undefined) [CHRESTFOLINE C]
inactive: KM-20L2 > 100 µM | HOP-18 > 100 µM | SR > 100 µM | ACHN > 100 µM | NCI-H23 > 100 µM | M19-MEL > 100 µM | UO-31 > 100 µM | HT-29 > 100 µM | A549 > 100 µM | HL-60 > 100 µM | HOP-92 > 100 µM | KM12 > 100 µM | LXFL 529 88.5 µM | DLD-1 > 100 µM | U-251 > 100 µM | A498 > 100 µM | OVCAR-8 > 100 µM | SK-OV-3 > 100 µM | OVCAR-4 > 100 µM | LOX IMVI > 100 µM | Malme-3M > 100 µM | HCC 2998 > 100 µM | HCT-116 > 100 µM | M14 > 100 µM | TK-10 > 100 µM | SF-539 > 100 µM | SNB-19 > 100 µM | CCRF-CEM > 100 µM | IGROV-1 > 100 µM | SW-620 > 100 µM | OVCAR-3 > 100 µM | COLO 205 > 100 µM | SNB-78 > 100 µM | HOP-62 > 100 µM | 786-0 > 100 µM | RXF 393 > 100 µM | SK-MEL-5 > 100 µM | SK-MEL-2 > 100 µM | EKVX > 100 µM | NCI-H522 > 100 µM | UACC-257 > 100 µM | SNB-75 > 100 µM | DMS-114 > 100 µM | K562 > 100 µM | SF-295 > 100 µM | SF-268 > 100 µM | MOLT-4 > 100 µM | SN12C > 100 µM | NCI-H460 > 100 µM | CAKI-1 > 100 µM | OVCAR-5 > 100 µM | RPMI-8226 > 100 µM | SK-MEL-28 > 100 µM | DMS-273 > 100 µM | UACC-62 > 100 µM
> 100 µM: HCT-15

CC(C)(C)c1cc(CCCCCCCC2(CCCCCCCc3cc(C(C)(C)C)cc(C(C)(C)C)c3)OC(COCCOCCCCCC#N)C(COCCOCCCCCC#N)O2)cc(C(C)(C)C)c1 (centres undefined)
inactive: KM-20L2 > 100 µM | HOP-18 > 100 µM | ACHN > 100 µM | NCI-H23 > 100 µM | M19-MEL > 100 µM | UO-31 > 100 µM | HT-29 > 100 µM | A549 > 100 µM | HL-60 > 100 µM | HOP-92 > 100 µM | KM12 > 100 µM | LXFL 529 > 100 µM | DLD-1 > 100 µM | U-251 > 100 µM | A498 > 100 µM | OVCAR-8 > 100 µM | SK-OV-3 > 100 µM | OVCAR-4 > 100 µM | LOX IMVI > 100 µM | Malme-3M > 100 µM | HCC 2998 > 100 µM | HCT-116 > 100 µM | M14 > 100 µM | TK-10 > 100 µM | NCI-H226 > 100 µM | SNB-19 > 100 µM | CCRF-CEM > 100 µM | IGROV-1 > 100 µM | SW-620 > 100 µM | OVCAR-3 > 100 µM | COLO 205 > 100 µM | SNB-78 > 100 µM | HOP-62 > 100 µM | 786-0 > 100 µM | RXF 393 3.78 µM | SK-MEL-5 > 100 µM | SK-MEL-2 > 100 µM | EKVX > 100 µM | NCI-H522 > 100 µM | UACC-257 > 100 µM | SNB-75 > 100 µM | DMS-114 > 100 µM | K562 > 100 µM | SF-295 > 100 µM | SF-268 > 100 µM | SN12C > 100 µM | NCI-H460 > 100 µM | CAKI-1 > 100 µM | OVCAR-5 > 100 µM | SK-MEL-28 > 100 µM | DMS-273 > 100 µM | UACC-62 > 100 µM
> 100 µM: HCT-15

Source: ChEMBL document CHEMBL1201862, “PubChem BioAssay data set” (2004)
